Experimental data from ChEMBL document CHEMBL1221220, “Transport and signaling via the amino acid binding site of the yeast Gap1 amino acid transceptor” (Nat Chem Biol, 2009).
Where a chain is given by its changes, count along the chain named. Calls of active or inactive are those of the source. The calls are words filed in the database; no cut-off is given here.

How the values were obtained:
[1] = system: T1, General amino-acid permease GAP1 (Saccharomyces cerevisiae), P19145 [A396C]; assay: Activation of yeast Gap1 A396C mutant-mediated amino acid uptake at 10 mM
T1 sequence (whole entry): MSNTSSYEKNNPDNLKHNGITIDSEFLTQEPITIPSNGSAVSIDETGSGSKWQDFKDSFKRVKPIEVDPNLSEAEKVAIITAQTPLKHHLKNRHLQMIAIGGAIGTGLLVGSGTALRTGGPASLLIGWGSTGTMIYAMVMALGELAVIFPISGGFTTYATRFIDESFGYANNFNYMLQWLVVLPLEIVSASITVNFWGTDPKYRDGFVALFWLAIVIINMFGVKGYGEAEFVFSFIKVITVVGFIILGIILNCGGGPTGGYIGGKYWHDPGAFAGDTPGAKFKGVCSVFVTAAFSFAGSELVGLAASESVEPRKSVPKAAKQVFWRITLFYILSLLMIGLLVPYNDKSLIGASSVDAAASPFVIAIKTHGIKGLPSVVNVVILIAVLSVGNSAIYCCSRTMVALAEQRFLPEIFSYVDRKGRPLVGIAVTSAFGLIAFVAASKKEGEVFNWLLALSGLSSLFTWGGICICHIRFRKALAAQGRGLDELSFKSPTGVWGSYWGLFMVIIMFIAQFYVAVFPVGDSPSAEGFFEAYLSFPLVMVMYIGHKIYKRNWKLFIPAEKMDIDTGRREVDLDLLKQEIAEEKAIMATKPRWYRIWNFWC

[2] = system: T2, General amino-acid permease GAP1 (Saccharomyces cerevisiae), P19145 [I384C]; assay: Induction of yeast Gap1 I384C mutant-mediated trehalose activation at 10 mM
T2 sequence (whole entry): T1 sequence (whole entry) with I384C, C396A

[3] = system: General amino-acid permease GAP1 (Saccharomyces cerevisiae), P19145 [S392C]; assay: Inhibition of yeast Gap1 S392C mutant-mediated amino acid uptake at 10 mM
[4] = system: T3, General amino-acid permease GAP1 (Saccharomyces cerevisiae), P19145 [A385C]; assay: Induction of yeast Gap1 A385C mutant-mediated amino acid uptake at 2 mM in presence of 10 mM MTSEA treated before compound addition
T3 sequence (whole entry): T1 sequence (whole entry) with A385C, C396A

[5] = system: T4, General amino-acid permease GAP1 (Saccharomyces cerevisiae), P19145 [A405C]; assay: Induction of yeast GAP1 A405C mutant-mediated amino acid uptake at 2 mM in presence of 10 mM MTSEA treated before compound addition
T4 sequence (whole entry): T1 sequence (whole entry) with C396A, A405C

Sequence of General amino-acid permease GAP1 (Saccharomyces cerevisiae), P19145 [S392C] (P19145 whole entry S392C): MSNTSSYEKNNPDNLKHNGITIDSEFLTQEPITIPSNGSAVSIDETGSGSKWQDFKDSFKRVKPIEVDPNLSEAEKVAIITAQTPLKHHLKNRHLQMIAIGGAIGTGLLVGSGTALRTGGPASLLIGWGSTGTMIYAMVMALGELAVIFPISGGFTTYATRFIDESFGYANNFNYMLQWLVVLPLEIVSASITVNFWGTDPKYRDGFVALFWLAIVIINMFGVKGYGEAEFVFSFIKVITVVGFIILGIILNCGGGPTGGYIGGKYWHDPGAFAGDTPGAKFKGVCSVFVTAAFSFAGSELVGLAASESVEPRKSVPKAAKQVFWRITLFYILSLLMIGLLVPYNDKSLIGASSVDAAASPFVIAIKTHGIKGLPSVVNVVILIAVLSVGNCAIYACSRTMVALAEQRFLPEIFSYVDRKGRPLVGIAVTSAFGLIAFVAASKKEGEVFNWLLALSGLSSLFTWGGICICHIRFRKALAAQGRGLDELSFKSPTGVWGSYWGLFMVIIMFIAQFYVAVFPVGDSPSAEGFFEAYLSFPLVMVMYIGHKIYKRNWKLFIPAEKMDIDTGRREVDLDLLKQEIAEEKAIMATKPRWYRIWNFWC

Structure (SMILES): NC(=O)NCCC[C@H](N)C(=O)O
- Activity [1]: inactive
- Activity [2]: inactive
- inhibition [3]: Active
- Activity [4]: Active
- Activity [5]: Active
